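1) Cells in 96-well plates. 2) Compound, 48 h, 5 concentrations. 3) Linear interpolation between surrounding doses. 4) Unreached endpoint = highest concentration. Abbreviation: GI50, concentration required for 50% inhibition of growth.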 Active and inactive are the calls of the source. Cut-off read from the data, not from the text of the source: active = GI50 up to about 1.1 µM and inactive = higher.
How the values were obtained:
Test in all cases: growth of human tumour cells (NCI), 48 h
[1] = tested on: KM-20L2
[2] = tested on: DLD-1
[3] = tested on: M19-MEL
[4] = tested on: DMS-273
[5] = tested on: HOP-18
[6] = tested on: DMS-114
[7] = tested on: SNB-78
[8] = tested on: RXF 631
[9] = tested on: LXFL 529

| SMILES | GI50 [1] | GI50 [2] | GI50 [3] | GI50 [4] | GI50 [5] | GI50 [6] | GI50 [7] | GI50 [8] | GI50 [9] |
| --- | --- | --- | --- | --- | --- | --- | --- | --- | --- |
| O=C[C@@H](CO)O[C@H](C=O)n1cnc2c(=O)nc[nH]c21 | 426 µM (inactive) | 77.8 µM (inactive) | 346 µM (inactive) | 101 µM (inactive) | 388 µM (inactive) | 39.2 µM (inactive) | 562 µM (inactive) | – | – |
| CCOC(=O)CC1=CSC2=NCCN12 | > 100 µM (inactive) | > 100 µM (inactive) | > 100 µM (inactive) | > 100 µM (inactive) | > 100 µM (inactive) | > 100 µM (inactive) | > 100 µM (inactive) | > 100 µM (inactive) | > 100 µM (inactive) |
| CC(C)=CCc1c(O)cc(O)c2c1OC(c1ccc(O)cc1)C(O)C2=O (stereo not given) | 18.1 µM (inactive) | 30.2 µM (inactive) | 35.7 µM (inactive) | – | 17.8 µM (inactive) | 39.4 µM (inactive) | 24.3 µM (inactive) | 31.8 µM (inactive) | 28.8 µM (inactive) |
| CCOC(=O)C1(C#N)C(c2ccccc2)CC(O)(c2ccc([N+](=O)[O-])cc2)C(C(=O)c2ccc([N+](=O)[O-])cc2)C1c1ccccc1 (stereo not given) | > 100 µM (inactive) | > 100 µM (inactive) | > 100 µM (inactive) | > 100 µM (inactive) | 29.9 µM (inactive) | > 100 µM (inactive) | > 100 µM (inactive) | – | > 100 µM (inactive) |
| C/C(CC(=O)Nc1ccc(Cl)cc1)=N\NC(=O)C[n+]1ccccc1 | > 100 µM (inactive) | > 100 µM (inactive) | – | > 100 µM (inactive) | – | > 100 µM (inactive) | > 100 µM (inactive) | > 100 µM (inactive) | > 100 µM (inactive) |
| O=C1c2ccccc2C(=O)N1Cc1ccccc1-c1c2nc(c(-c3ccccc3CN3C(=O)c4ccccc4C3=O)c3ccc([nH]3)c(-c3ccccc3CN3C(=O)c4ccccc4C3=O)c3nc(c(-c4ccccc4CN4C(=O)c5ccccc5C4=O)c4ccc1[nH]4)C=C3)C=C2 | > 100 µM (inactive) | > 100 µM (inactive) | > 100 µM (inactive) | > 100 µM (inactive) | > 100 µM (inactive) | > 100 µM (inactive) | > 100 µM (inactive) | – | > 100 µM (inactive) |
| C/C(=C/C(=O)Nc1ccccc1)Nc1onc(C)c1C | > 100 µM (inactive) | > 100 µM (inactive) | > 100 µM (inactive) | > 100 µM (inactive) | > 100 µM (inactive) | > 100 µM (inactive) | > 100 µM (inactive) | – | – |
| CCOc1cccc2sc(N)nc12 | > 100 µM (inactive) | > 100 µM (inactive) | > 100 µM (inactive) | > 100 µM (inactive) | > 100 µM (inactive) | > 100 µM (inactive) | > 100 µM (inactive) | – | > 100 µM (inactive) |
| COc1cc(NC(C)=O)c2[nH]c3c(C)cc(NC(C)=O)c(C)c3c2c1 | > 100 µM (inactive) | > 100 µM (inactive) | > 100 µM (inactive) | > 100 µM (inactive) | > 100 µM (inactive) | > 100 µM (inactive) | – | – | > 100 µM (inactive) |
| CSc1nc2c(ncn2C2OC(CO)C(O)C(O)C2O)c(=O)[nH]1 (stereo not given) | > 100 µM (inactive) | > 100 µM (inactive) | > 100 µM (inactive) | > 100 µM (inactive) | > 100 µM (inactive) | > 100 µM (inactive) | > 100 µM (inactive) | – | – |
| COc1cc2c(c(OC)c1OC)-c1ccc(SC)c(=O)cc1[C@@H](NCc1ccc(C#N)cc1)CC2 | 0.00194 µM (active) | 0.00348 µM (active) | 0.00361 µM (active) | 0.0034 µM (active) | – | 0.00236 µM (active) | 0.00531 µM (active) | – | 0.0053 µM (active) |
| CCOc1ccc(NCC(=O)N2CC(=O)Nc3ccccc32)cc1 | > 100 µM (inactive) | > 100 µM (inactive) | > 100 µM (inactive) | > 100 µM (inactive) | > 100 µM (inactive) | – | > 100 µM (inactive) | – | > 100 µM (inactive) |
